The values below come from ChEMBL document CHEMBL3638724, “Selective androgen receptor modulators” (2015).

Bounds are passed on as bounds.

The assay deals with T1, Androgen receptor (Homo sapiens, UniProt P10275).
T1 sequence (P10275 whole entry): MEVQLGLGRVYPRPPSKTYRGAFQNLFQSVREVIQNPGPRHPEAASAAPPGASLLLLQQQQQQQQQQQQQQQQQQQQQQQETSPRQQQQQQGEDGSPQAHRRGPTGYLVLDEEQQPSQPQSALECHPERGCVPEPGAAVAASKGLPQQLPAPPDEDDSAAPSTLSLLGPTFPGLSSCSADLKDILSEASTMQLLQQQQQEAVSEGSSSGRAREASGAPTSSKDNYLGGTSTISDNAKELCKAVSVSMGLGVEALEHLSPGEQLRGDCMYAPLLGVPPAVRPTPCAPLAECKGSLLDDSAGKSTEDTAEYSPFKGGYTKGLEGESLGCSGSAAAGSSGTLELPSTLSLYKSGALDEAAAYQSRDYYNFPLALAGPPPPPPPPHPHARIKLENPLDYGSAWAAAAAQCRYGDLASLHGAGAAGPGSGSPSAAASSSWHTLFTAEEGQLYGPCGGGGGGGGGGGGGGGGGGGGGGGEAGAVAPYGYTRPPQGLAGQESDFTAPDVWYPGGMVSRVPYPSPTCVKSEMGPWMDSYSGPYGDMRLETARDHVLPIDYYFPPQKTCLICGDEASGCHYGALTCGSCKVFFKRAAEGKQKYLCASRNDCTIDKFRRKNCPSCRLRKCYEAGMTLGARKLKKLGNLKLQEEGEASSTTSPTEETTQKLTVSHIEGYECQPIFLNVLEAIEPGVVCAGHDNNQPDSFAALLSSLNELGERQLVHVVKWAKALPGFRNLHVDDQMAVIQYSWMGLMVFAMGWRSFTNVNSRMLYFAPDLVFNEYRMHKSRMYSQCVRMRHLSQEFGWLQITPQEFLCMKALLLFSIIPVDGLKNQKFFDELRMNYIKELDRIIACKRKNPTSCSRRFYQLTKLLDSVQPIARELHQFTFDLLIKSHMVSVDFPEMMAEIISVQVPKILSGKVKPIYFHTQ
Description: The assay was performed as specified by the manufacturer (Invitrogen, Madison, Wis.). Briefly, 1 ul of 10 mM compound was added to 500 ul of AR screening buffer in a 1.5 ml eppendorf tube to make a 2x10-5M stock. 10-fold serial dilutions of the test compounds were prepared ranging in concentration from 10^-5M to 10-12M. Each dilution was added in triplicate to a black 384-microtiter plate. The test compounds will be diluted 2-fold in the final reaction. 2xAR-Fluormone complex was prepared with 2 nM Flourmone AL Green and 30 nM AR. 25 ul of 2x complex was aliquoted to each reaction well, such that the final reaction volume was 50 ul per well. The plate was sealed with a foil cover and incubated in the dark at room temperature.
Compound `OC1(C(F)(F)F)CCCc2c1[nH]c1cc(Cl)c(Cl)cc21` (stereo unspecified) registered an IC50 of 1.56 µM. The same measure for `OC1(C(F)(F)F)CCCc2c1[nH]c1ccc(Cl)c(Cl)c21` (stereo unspecified): 40.2 µM; for `Oc1cccc2c1[nH]c1ccc(Br)cc12`: 1.42 µM. For `N#Cc1ccc2[nH]c3c(O)cccc3c2c1`, the concentration for half-maximal inhibition (IC50) worked out at 4.6 µM.

`Oc1c(Br)ccc2c1[nH]c1cc(Cl)c(Cl)cc12` yielded a concentration for half-maximal inhibition (IC50) of 0.034 µM. Compared with the last compound, the IC50 is about 140-fold lower. The result for `Oc1cccc2c1[nH]c1ccc(Cl)c(Cl)c12` reads 0.015 µM.

Take `O[C@@]1(C(F)(F)F)CCCc2c1[nH]c1cc(Cl)c(Cl)cc21`: the IC50 was over 1 µM. The same measure for `O[C@]1(C(F)(F)F)CCCc2c1[nH]c1cc(Cl)c(Cl)cc21`: 0.013 µM.

The compound `O[C@]1(C(F)(F)F)CCCc2c1[nH]c1c(Cl)cc(Cl)cc21` displayed an IC50 of 0.02 µM. The result for `OC1(C(F)(F)F)c2[nH]c3c(Cl)cc(F)cc3c2CCC1C(F)(F)F` (stereo unspecified) reads over 10 µM; that for `OC1(C(F)(F)F)CCCc2c1[nH]c1c(Cl)cc(Cl)c(Cl)c21` (stereo unspecified), over 10 µM.

Usually IC50 stands for the concentration that inhibits the measured activity by half.
